Results as given in patent US10968214B2, “KRas G12C inhibitors” (Eli Lilly and Company, priority 2018, dated 2021).
Like-named read-outs stand apart in the source and are kept apart here.

What was measured:
Calu-1 = assay: Combination 4 day growth assay (Cell TiterGlo), Calu-1; assay type: cell-based; details: Homo sapiens, Calu-1, 96 h, single treatment, read-out: Absolute IC50
Procedure: (§1) Cell lines for this study are obtained from ATCC and grown under ATCC recommended conditions, except for LXFA-983L, which is obtained from Oncotest/Charles Rivers Laboratories, Wilmington, Mass. and D122-96, which is obtained from L. Eisenbach (Weizman Institute of Science, Rehovot, Israel)—both grown under recommended conditions. […] The proliferation assay is performed as a 4 day growth assay using Cell TiterGlo® as the readout. Briefly, cells are plated in 96-well cell culture plates and allowed to adhere overnight at 37° C. The following day, cells are treated with compounds, either single treatments or combination treatments. First, the testing compounds are serially diluted in DMSO, followed by dilution into media as a 5× concentration with 1% DMSO, and finally added to cells in media to dilute to 1×. The cells are incubated at 37° C. for 4 more days. At the end of the incubation period, Cell TiterGlo® reagent is mixed and added to the wells. After 10 minutes, the luminescence is read by a Perkin Elmer Envision instrument. Absolute IC50 values generated by a 4-parameter logistics model for the single and combination treatments are generated, followed by combination indexes for each combination treatment and cell line. The combination IC50 values are adjusted based on the total concentration of each compound when added together. […] The combination index (CI) measures the degree to which the potency of a combination therapy differs from the expected-if-additive potency and is based on the Loewe definition of additivity.
(§2) [formula] Where • CAy and CBy are the concentrations of therapies A and B that produce an effect, y, when given in combination • ICAy and ICBy are the concentrations of A and B that produce an effect, y, when given individually The biological interpretation of the combination index is as follows: synergistic if the combination index <0.5, additive if the combination index is between 0.5 and 2, and antagonistic if the combination index is >2.

EL3187 = assay: CellTiterGlo Cell Proliferation Assay, EL3187; assay type: cell-based; details: KRas G12C, Lung, 96 hr
Procedure: (§3) A panel of tumor cell lines harboring KRas G12C or other KRas mutations are collected (Table 6). All cell lines are from ATCC or other sources indicated.
(§4) Typically cells are cultured in RPMI1640 or Dulbecco's modified Eagle's medium (DMEM, GIBCO) supplemented with 10% FBS (GIBCO, Invitrogen). For 2D culture cells (4×10^3/well) maintained in growth medium described above, are plated onto 96 well tissue culture plates Corning® Cat. 3603) a day before the treatment. For 3D culture 8000 cells/well are seeded onto 96 well ultra-low attachment tissue culture plates (Corning, #3474). The cells are treated compound for 96 hr, and then are analyzed for viability using the CellTiterGlo® Luminescent Cell Viability Assay® (Promega #G7572 for 2D and Promega #G9683 for 3D cultures) according to manufacturer's instructions and an EnVision™ plate reader. Nonlinear regression and sigmoidal dose-response curves are used to calculate the half maximal inhibitory concentration (IC50) with GraphPad Prism 4® software.

A549 = assay: CellTiterGlo Cell Proliferation Assay, A549; assay type: cell-based; details: KRas G12S, lung, 96 hr; for IC50: Homo sapiens
Procedure: as §3, §4

LXFA-983L [1] = assay: Combination 4 day growth assay (Cell TiterGlo), LXFA-983L; assay type: cell-based; details: LXFA 983L, 96 h, single treatment, read-out: Absolute IC50
Procedure: as §1, §2

H358 = assay: CellTiterGlo Cell Proliferation Assay, H358; assay type: cell-based; details: Homo sapiens, NCI-H358, KRas G12C, Lung, 96 hr
Procedure: as §3, §4

Miapaca-2 = assay: CellTiterGlo Cell Proliferation Assay, Miapaca-2; assay type: cell-based; details: Homo sapiens, MIA PaCa-2, KRas G12C, Pancreas, 96 hr
Procedure: as §3, §4

HCC44 xenograft = assay: Anti-tumor growth activity, HCC44 lung xenograft; assay type: in vivo; details: 28 Day, negative = regression
LXFA-983L [2] = assay: CellTiterGlo Cell Proliferation Assay, LXFA-983L; assay type: cell-based; details: KRas G12C, Lung, 96 hr
Procedure: as §3, §4

SW837 = assay: Combination 4 day growth assay (Cell TiterGlo), SW837; assay type: cell-based; details: Homo sapiens, SW837, 96 h, single treatment, read-out: Absolute IC50
Procedure: as §1, §2

[3] = read-out: IC50 (μM) in 2 D cell proliferation
[4] = read-out: IC50 (μM) in 3 D spheroid cell proliferation

Work on `C=CC(=O)N1CCN(c2ncnc3c(F)c(-c4ccc(F)c5sc(N)nc45)c(Cl)cc23)CC1` [Example 1, 1-{4-[7-(2-Amino-7-fluoro-1,3-benzothiazol-4-yl)-6-chloro-8-fluoroquinazolin-4-yl]piperazin-1-yl}prop-2-en-1-one] yielded an IC50 (Calu-1) of 14.5 nM, an IC50 (EL3187; [3]) of 0.003 µM and an IC50 (EL3187; [4]) of 0.013 µM. The IC50 (A549; [3]) was 17.7 µM, the IC50 (A549; [4]) was 5.94 µM and the “IC50 (μM) in 2 D cell proliferation” value (A549) was “little activity”. The “IC50 (μM) in 3 D spheroid cell proliferation” value (A549) was “little activity”, the IC50 (LXFA-983L [1]) was 2590 nM and the IC50 (H358; [3]) was 0.041 µM. The IC50 (H358; [4]) was 0.026 µM, the IC50 (Miapaca-2; [3]) was 0.014 µM and the IC50 (Miapaca-2; [4]) was 0.086 µM. The “Tumor Growth Inhibition (%) or Regression (−%)” value (shortened to “Tumor Growth Inhibition … (−%)”) (HCC44 xenograft; 15 mg/kg BID) was 93.4%, the “Tumor Growth Inhibition … (−%)” value (HCC44 xenograft; 30 mg/kg BID) was −16.5% and the “Tumor Growth Inhibition … (−%)” value (HCC44 xenograft; 30 mg/kg QD) was 85.4%. For the same compound, the IC50 (LXFA-983L [2]; [3]) was 1.34 µM, the IC50 (LXFA-983L [2]; [4]) was 0.05 µM and the IC50 (SW837) was 101 nM.
